Assay results as given in patent publication US20250388565A1, “ESTROGEN RECEPTOR ALPHA DEGRADERS AND METHODS OF USE THEREOF” (Relay Therapeutics, Inc., priority 2022, published 2025).

Target: T1, ERα protein (HiBiT-tagged) in ESR1_HiBiT KI MCF7 cells (Homo sapiens, UniProt P03372)
T1 sequence (P03372 1-595): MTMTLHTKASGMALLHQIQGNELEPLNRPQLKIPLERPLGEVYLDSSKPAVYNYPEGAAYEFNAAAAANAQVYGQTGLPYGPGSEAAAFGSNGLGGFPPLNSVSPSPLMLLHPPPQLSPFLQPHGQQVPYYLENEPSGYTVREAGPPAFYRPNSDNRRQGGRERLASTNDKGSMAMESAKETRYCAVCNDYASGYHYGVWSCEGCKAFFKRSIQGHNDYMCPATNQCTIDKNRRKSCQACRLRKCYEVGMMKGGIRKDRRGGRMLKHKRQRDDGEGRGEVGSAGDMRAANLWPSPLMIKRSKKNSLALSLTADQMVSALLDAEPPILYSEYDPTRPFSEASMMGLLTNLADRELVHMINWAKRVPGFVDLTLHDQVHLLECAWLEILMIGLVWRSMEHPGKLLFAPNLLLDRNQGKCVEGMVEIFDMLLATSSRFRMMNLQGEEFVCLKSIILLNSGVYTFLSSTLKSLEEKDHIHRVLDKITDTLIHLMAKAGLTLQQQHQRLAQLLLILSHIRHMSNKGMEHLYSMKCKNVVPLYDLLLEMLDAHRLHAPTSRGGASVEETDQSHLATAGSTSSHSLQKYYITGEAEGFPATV
Assay: Nano Glo HiBiT Lytic Degradation Assay
Type: cell-based
Settings: 6 hours with compound, 14-point dose response 1:3, bell-shape curve fit, half-maximal effect of first Hill model, read-out: MCF7 ESR1 HiBiT - (DC50)
Outline: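 ESR1_HiBiT knock-in MCF7 cells were seeded 24 h before treatment, then exposed to compounds for 6 h at 37° C (14-point 1:3 curves, 10 mM top stock, 0.1% DMSO final, duplicates). HiBiT-ERα was read by lytic LgBiT luminescence, background-subtracted and normalized to DMSO. DC50 was taken from the half-maximal point of the first Hill component of a bell-shaped fit.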

SMILES | DC50
O=C1CC[C@H](N2Cc3cc(N4CCN(CC5CCN(c6ccc(C7c8ccc(O)cc8CCN7C7CCCCC7)cc6)CC5)CC4)ccc3C2=O)C(=O)N1 (stereo partly drawn) [Compound I-9, (3S)-3-(5-(4-((1-(4-(2-cyclohexyl-6-hydroxy-1,2,3,4-tetrahydroisoquinolin-1-yl)phenyl)piperidin-4-yl)methyl)piperazin-1-yl)-1-oxoisoindolin-2-yl)piperidine-2,6-dione] | 11 nM
O=C1CC[C@H](N2Cc3cc(N4CCN(CC5CCN(c6cc(F)c(C7=C(c8ccccc8)CCc8cc(O)ccc87)c(F)c6)CC5)CC4)ccc3C2=O)C(=O)N1 [Compound I-10, (S)-3-(5-(4-((1-(3,5-difluoro-4-(6-hydroxy-2-phenyl-3,4-dihydronaphthalen-1-yl)phenyl)piperidin-4-yl)methyl)piperazin-1-yl)-1-oxoisoindolin-2-yl)piperidine-2,6-dione] | 16 nM
O=C1CCC(c2ccc(N3CCN(CC4CCN(c5ccc([C@H]6c7ccc(O)cc7CC[C@H]6c6ccccc6)cc5)CC4)CC3)cc2)C(=O)N1 (stereo partly drawn) [Compound I-11, 3-[4-[4-[[1-[4-[(1S,2R)-6-hydroxy-2-phenyl-tetralin-1-yl]phenyl]-4-piperidyl]methyl]piperazin-1-yl]phenyl]piperidine-2,6-dione] | ≥ 10000 nM
O=C1CC[C@H](N2Cc3cc(N4CCN(CC5CCN(c6ccc([C@H]7c8ccc(O)cc8C(F)(F)C[C@H]7c7ccccc7)cc6)CC5)CC4)ccc3C2=O)C(=O)N1 [Compound I-13] | 13 nM
Cn1cc([C@H]2CCc3cc(O)ccc3[C@H]2c2ccc(N3CCC(CN4CCN(c5ccc6c(c5)CN([C@H]5CCC(=O)NC5=O)C6=O)CC4)CC3)cc2)cn1 [Compound I-30] | 2 nM
Cn1ccc([C@@H]2CCc3cc(O)ccc3[C@@H]2c2ccc(N3CCC(CN4CCN(c5ccc6c(c5)CN([C@H]5CCC(=O)NC5=O)C6=O)CC4)CC3)cc2)n1 [Compound I-31] | ≥ 10000 nM
O=C1CC[C@H](N2Cc3cc(N4CCN(CC5CCN(c6ccc([C@H]7c8ccc(O)cc8CC[C@H]7C7CCOCC7)cc6)CC5)CC4)ccc3C2=O)C(=O)N1 [Compound I-33, (3S)-3-[5-[4-[[1-[4-[(1S,2S)-6-hydroxy-2-tetrahydropyran-4-yl-tetralin-1-yl]phenyl]-4-piperidyl]methyl]piperazin-1-yl]-1-oxo-isoindolin-2-yl]piperidine-2,6-dione] | 173 nM
O=C1CCC(c2ccc(N3CCN(CC4CCN(c5ccc([C@@H]6c7ccc(O)cc7CC[C@@H]6c6ccccc6)cc5)CC4)CC3)cc2)C(=O)N1 (stereo partly drawn) [Compound I-39, 3-[4-[4-[[1-[4-[(1R,2S)-6-hydroxy-2-phenyl-tetralin-1-yl]phenyl]-4-piperidyl]methyl]piperazin-1-yl]phenyl]piperidine-2,6-dione] | 469 nM
O=C1CC[C@H](N2Cc3cc(N4CCN(CC5CCN(c6ccc([C@@H]7c8ccc(B(O)O)cc8CC[C@@H]7c7ccccc7)cc6)CC5)CC4)ccc3C2=O)C(=O)N1 [Compound I-45, ((5R,6S)-5-(4-(4-((4-(2-((S)-2,6-dioxopiperidin-3-yl)-1-oxoisoindolin-5-yl)piperazin-1-yl)methyl)piperidin-1-yl)phenyl)-6-phenyl-5,6,7,8-tetrahydronaphthalen-2-yl)boronic acid] | 3 nM
O=C1CC[C@H](N2Cc3cc(N4CCN(CC5CCN(c6ccc([C@@H]7c8ccc(C(F)(F)F)cc8CC[C@@H]7c7ccccc7)cc6)CC5)CC4)ccc3C2=O)C(=O)N1 [Compound I-46, (S)-3-(1-oxo-5-(4-((1-(4-((1R,2S)-2-phenyl-6-(trifluoromethyl)-1,2,3,4-tetrahydronaphthalen-1-yl)phenyl)piperidin-4-yl)methyl)piperazin-1-yl)isoindolin-2-yl)piperidine-2,6-dione] | ≥ 10000 nM
O=C1CC[C@H](N2Cc3cc(N4CCN(CC5CCN(c6ccc([C@@H]7c8ccccc8CC[C@@H]7c7ccccc7)cc6)CC5)CC4)ccc3C2=O)C(=O)N1 [Compound I-47, (S)-3-(1-oxo-5-(4-((1-(4-((1R,2S)-2-phenyl-1,2,3,4-tetrahydronaphthalen-1-yl)phenyl)piperidin-4-yl)methyl)piperazin-1-yl)isoindolin-2-yl)piperidine-2,6-dione] | 79 nM
N#Cc1ccc2c(c1)CC[C@H](c1ccccc1)[C@@H]2c1ccc(N2CCC(CN3CCN(c4ccc5c(c4)CN([C@H]4CCC(=O)NC4=O)C5=O)CC3)CC2)cc1 [Compound I-49, (5R,6S)-5-(4-(4-((4-(2-((S)-2,6-dioxopiperidin-3-yl)-1-oxoisoindolin-5-yl)piperazin-1-yl)methyl)piperidin-1-yl)phenyl)-6-phenyl-5,6,7,8-tetrahydronaphthalene-2-carbonitrile] | ≥ 10000 nM
Cc1ccc2c(c1)CC[C@H](c1ccccc1)[C@@H]2c1ccc(N2CCC(CN3CCN(c4ccc5c(c4)CN([C@H]4CCC(=O)NC4=O)C5=O)CC3)CC2)cc1 [Compound I-50, (S)-3-(5-(4-((1-(4-((1R,2S)-6-methyl-2-phenyl-1,2,3,4-tetrahydronaphthalen-1-yl)phenyl)piperidin-4-yl)methyl)piperazin-1-yl)-1-oxoisoindolin-2-yl)piperidine-2,6-dione] | ≥ 10000 nM

Now those with a lower DC50, led by results:

DC50 | SMILES
1 nM | C[C@@H]1OC2(CCCCC2)[C@H](c2ccc(N3CCC(CN4CCN(c5ccc6c(c5)CN([C@H]5CCC(=O)NC5=O)C6=O)CC4)CC3)cc2)c2ccc(O)cc21 [Compound I-83, (S)-3-(5-(4-((1-(4-((1′S,4′R)-7′-hydroxy-1′-methylspiro[cyclohexane-1,3′-isochroman]-4′-yl)phenyl)piperidin-4-yl)methyl)piperazin-1-yl)-1-oxoisoindolin-2-yl)piperidine-2,6-dione]
0.64 nM | O=C1CC[C@H](N2Cc3cc(N4CCN(CC5CCN(c6ccc([C@@H]7c8ccc(O)cc8CCC78CCCCC8)cc6)CC5)CC4)ccc3C2=O)C(=O)N1 [Compound I-85, (S)-3-(5-(4-((1-(4-((R)-6′-hydroxy-3′,4′-dihydro-1′H-spiro[cyclohexane-1,2′-naphthalen]-1′-yl)phenyl)piperidin-4-yl)methyl)piperazin-1-yl)-1-oxoisoindolin-2-yl)piperidine-2,6-dione]
0.49 nM | O=C1CC[C@H](N2Cc3cc(N4CCN(CC5CCN(c6ccc([C@@H]7c8ccc(O)cc8CO[C@@H]7C7CCCCC7)cc6)CC5)CC4)ccc3C2=O)C(=O)N1 [Compound I-34, (S)-3-(5-(4-((1-(4-((3R,4R)-3-cyclohexyl-7-hydroxyisochroman-4-yl)phenyl)piperidin-4-yl)methyl)piperazin-1-yl)-1-oxoisoindolin-2-yl)piperidine-2,6-dione]
0.45 nM | O=C1CC[C@H](N2Cc3cc(N4CCN(CC5CCN(c6ccc([C@@H]7c8ccc(O)cc8CC[C@@H]7C7CCOCC7)cc6)CC5)CC4)ccc3C2=O)C(=O)N1 [Compound I-32, (3S)-3-[5-[4-[[1-[4-[(1R,2R)-6-hydroxy-2-tetrahydropyran-4-yl-tetralin-1-yl]phenyl]-4-piperidyl]methyl]piperazin-1-yl]-1-oxo-isoindolin-2-yl]piperidine-2,6-dione]
0.45 nM | O=C1CC[C@H](N2Cc3cc(N4CCN(CC5CCN(c6ccc([C@@H]7c8ccc(O)cc8C(F)(F)C[C@@H]7c7ccccc7)cc6)CC5)CC4)ccc3C2=O)C(=O)N1 [Compound I-51, (S)-3-(5-(4-((1-(4-((1R,2S)-4,4-difluoro-6-hydroxy-2-phenyl-1,2,3,4-tetrahydronaphthalen-1-yl)phenyl)piperidin-4-yl)methyl)piperazin-1-yl)-1-oxoisoindolin-2-yl)piperidine-2,6-dione]
0.3 nM | O=C1CC[C@H](N2Cc3cc(N4CCN(CC5CCN(c6ccc([C@@H]7c8ccc(O)cc8CO[C@@H]7c7ccc(F)cc7)cc6)CC5)CC4)ccc3C2=O)C(=O)N1 [Compound I-35, (S)-3-(5-(4-((1-(4-((3S,4R)-3-(4-fluorophenyl)-7-hydroxyisochroman-4-yl)phenyl)piperidin-4-yl)methyl)piperazin-1-yl)-1-oxoisoindolin-2-yl)piperidine-2,6-dione]
0.21 nM | O=C1CC[C@H](N2Cc3cc(N4CCN(CC5CCN(c6ccc([C@@H]7c8ccc(O)cc8CO[C@@]78CCCc7ccccc78)cc6)CC5)CC4)ccc3C2=O)C(=O)N1 [Compound I-76, (S)-3-(5-(4-((1-(4-((3S,4R)-7-hydroxy-3′,4′-dihydro-2′H-spiro[isochromane-3,1′-naphthalen]-4-yl)phenyl)piperidin-4-yl)methyl)piperazin-1-yl)-1-oxoisoindolin-2-yl)piperidine-2,6-dione]
0.2 nM | O=C1CC[C@H](N2Cc3cc(N4CCN(CC5CCN(c6ccc([C@@H]7c8ccc(O)cc8CO[C@@]78CCc7ccccc78)cc6)CC5)CC4)ccc3C2=O)C(=O)N1 [Compound I-77, (S)-3-(5-(4-((1-(4-((1S,4′R)-7′-hydroxy-2,3-dihydrospiro[indene-1,3′-isochroman]-4′-yl)phenyl)piperidin-4-yl)methyl)piperazin-1-yl)-1-oxoisoindolin-2-yl)piperidine-2,6-dione]
